Each compound was assayed on MCF-7 cells (assay: MCF-7 cell growth inhibition assay). Conditions: Homo sapiens, MCF7, 120 h, MCF-7 cells plated in presence of estradiol (1 nM), five days incubation, Presto Blue viability.
Assay type: cell-based
Experimental: MCF-7 Cell Growth Inhibition Assay
MCF-7 cells were plated in 96 well plate in the presence of estradiol (1 nM) and incubated overnight. After 24 hours test compound was added at various concentrations and incubated for five days. On the fifth day, cell viability was evaluated using Presto Blue Cell Viability Reagent. Percentage growth inhibition was calculated as follows: 100−[(O.D. of sample)*100/O.D. of vehicle control] wherein O.D. is optical density.

| Compound | inhibition at 1 µM |
| --- | --- |
| CC1=C(c2cccc(O)c2)C(c2ccc(/C=C\CN3CCC(CF)(CF)C3)cc2)Oc2ccc(O)cc21 (stereo not shown) [Compound 67] | 30.1% |
| CC1=C(c2cccc(O)c2)C(c2ccc(/C=C/CN(C)CCCCCCCCC(F)F)cc2)Oc2ccc(O)cc21 (stereo not shown) [Compound 70] | 16.9% |
| CC1=C(c2cccc(O)c2)C(c2ccc(/C=C\CN(C)CCCCCCCCC(F)F)cc2)Oc2ccc(O)cc21 (stereo not shown) [Compound 71] | 56.8% |
| CC1=C(c2cccc(O)c2)C(c2ccc(/C=C\CN3CC[C@@H](CO)C3)cc2)Oc2ccc(O)cc21 (stereo partly shown) [Compound 72] | 31.9% |
| CC1=C(c2cc(O)cc(F)c2)C(c2ccc(/C=C\CN3CC[C@@H](C)C3)cc2)Oc2ccc(O)cc21 (stereo partly shown) [Compound 81] | 77.4% |
| CC1=C(c2cc(F)cc(F)c2)C(c2ccc(/C=C\CN3CCN(C)CC3)cc2)Oc2ccc(O)cc21 (stereo not shown) [Compound 83] | 12.9% |

Same assay, conditions: at 1 μM; MCF-7 cells plated in presence of estradiol (1 nM), five days incubation, Presto Blue viability

| Compound | % inhibition |
| --- | --- |
| CC1=C(c2cccc(O)c2)C(c2ccc(C#CCN(C)CCCCCCCCCC(F)F)cc2)Oc2ccc(O)cc21 (stereo not shown) [Compound 69] | 19.8% |
| CC1=C(c2cccc(O)c2)C(c2ccc(/C=C\CN3CC[C@@H](C)C3)cc2)Oc2ccc(O)cc21 (stereo partly shown) [Compound 75] | 74.4% |
| CC1=C(c2cccc(O)c2)C(c2ccc(/C=C/CNCCCCCCCCCF)cc2)Oc2ccc(O)cc21 (stereo not shown) [Compound 79] | 64.8% |
| CC1=C(c2cccc(O)c2)C(c2ccc(/C=C/CNCCCCCCCCCF)cc2)Oc2ccc(O)cc21 (stereo not shown) [Compound 80] | 53% |
